US9301965B2, “Method of treating ovarian cancer using a PKC inhibitor” (University of South Florida, priority 2014, dated 2016)
Values joined by “and” are separate entries in the source; they are usually repeats but may differ in a detail not shown here. Equal entries are not always repeated.

Columns and labels:
PKC-δ = PKC-δ (Homo sapiens, UniProt Q05655); conditions: cited from earlier work
PKC-ε = target: T1, PKC-ε (Homo sapiens, UniProt Q02156); conditions: cited from earlier work
T1 sequence (Q02156 1-737): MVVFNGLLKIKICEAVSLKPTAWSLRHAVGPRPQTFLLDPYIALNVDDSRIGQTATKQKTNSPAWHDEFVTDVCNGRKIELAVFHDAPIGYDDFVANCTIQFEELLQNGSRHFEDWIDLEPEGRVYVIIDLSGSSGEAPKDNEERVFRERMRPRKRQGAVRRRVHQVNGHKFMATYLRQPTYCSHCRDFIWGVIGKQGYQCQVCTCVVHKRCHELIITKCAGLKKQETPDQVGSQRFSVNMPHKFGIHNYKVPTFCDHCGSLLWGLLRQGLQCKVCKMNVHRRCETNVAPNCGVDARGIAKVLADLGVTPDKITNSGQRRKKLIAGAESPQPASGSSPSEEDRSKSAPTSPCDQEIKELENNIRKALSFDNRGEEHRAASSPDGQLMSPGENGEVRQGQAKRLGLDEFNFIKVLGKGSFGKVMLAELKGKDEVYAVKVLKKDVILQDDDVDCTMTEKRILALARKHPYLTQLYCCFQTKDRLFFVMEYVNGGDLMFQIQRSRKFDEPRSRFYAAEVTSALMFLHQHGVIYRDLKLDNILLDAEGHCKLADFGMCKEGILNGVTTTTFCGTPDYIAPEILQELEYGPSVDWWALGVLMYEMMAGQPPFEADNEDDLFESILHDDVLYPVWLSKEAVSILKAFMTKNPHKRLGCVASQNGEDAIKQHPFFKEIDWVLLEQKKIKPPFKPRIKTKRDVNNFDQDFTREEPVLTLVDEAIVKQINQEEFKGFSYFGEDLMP

HEY ovarian cancer cells [1] = experiment: Total RNA concentration of HEY cells (Rneasy Mini Kit, NanoDrop1000); type: cell-based, human; conditions: for reduction of total RNA: 2 μM
Description: RNA was isolated from the treated and untreated cells using the Rneasy Mini Kit and protocol. The total RNA concentration was estimated using the NanoDrop1000 spectrophotometer.

PKC-ι [2] = target: T2, PKC-ι (Homo sapiens, UniProt P41743); conditions: cited from earlier work
T2 sequence (P41743 1-596): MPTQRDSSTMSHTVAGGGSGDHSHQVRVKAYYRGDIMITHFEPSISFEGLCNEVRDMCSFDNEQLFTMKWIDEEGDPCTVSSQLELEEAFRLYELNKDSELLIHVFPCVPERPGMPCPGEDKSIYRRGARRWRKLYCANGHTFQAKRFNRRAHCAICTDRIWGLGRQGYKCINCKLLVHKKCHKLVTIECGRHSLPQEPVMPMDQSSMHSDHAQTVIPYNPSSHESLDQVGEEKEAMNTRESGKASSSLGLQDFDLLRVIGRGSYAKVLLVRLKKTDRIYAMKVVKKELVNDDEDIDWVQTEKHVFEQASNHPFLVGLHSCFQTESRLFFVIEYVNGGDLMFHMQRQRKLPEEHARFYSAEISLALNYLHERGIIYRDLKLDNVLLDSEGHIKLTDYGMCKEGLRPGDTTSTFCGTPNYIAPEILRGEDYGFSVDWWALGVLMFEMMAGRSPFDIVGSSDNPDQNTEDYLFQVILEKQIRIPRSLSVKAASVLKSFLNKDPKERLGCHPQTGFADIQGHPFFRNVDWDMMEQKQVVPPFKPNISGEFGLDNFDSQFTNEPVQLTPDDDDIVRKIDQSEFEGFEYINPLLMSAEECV

PKC-α = PKC-α (Homo sapiens, UniProt P17252); conditions: cited from earlier work
PKC-β = PKC-β (Homo sapiens, UniProt P05771); conditions: cited from earlier work
PKC-ζ = target: T3, PKC-ζ (Homo sapiens, UniProt Q05513); conditions: cited from earlier work
T3 sequence (Q05513 1-592): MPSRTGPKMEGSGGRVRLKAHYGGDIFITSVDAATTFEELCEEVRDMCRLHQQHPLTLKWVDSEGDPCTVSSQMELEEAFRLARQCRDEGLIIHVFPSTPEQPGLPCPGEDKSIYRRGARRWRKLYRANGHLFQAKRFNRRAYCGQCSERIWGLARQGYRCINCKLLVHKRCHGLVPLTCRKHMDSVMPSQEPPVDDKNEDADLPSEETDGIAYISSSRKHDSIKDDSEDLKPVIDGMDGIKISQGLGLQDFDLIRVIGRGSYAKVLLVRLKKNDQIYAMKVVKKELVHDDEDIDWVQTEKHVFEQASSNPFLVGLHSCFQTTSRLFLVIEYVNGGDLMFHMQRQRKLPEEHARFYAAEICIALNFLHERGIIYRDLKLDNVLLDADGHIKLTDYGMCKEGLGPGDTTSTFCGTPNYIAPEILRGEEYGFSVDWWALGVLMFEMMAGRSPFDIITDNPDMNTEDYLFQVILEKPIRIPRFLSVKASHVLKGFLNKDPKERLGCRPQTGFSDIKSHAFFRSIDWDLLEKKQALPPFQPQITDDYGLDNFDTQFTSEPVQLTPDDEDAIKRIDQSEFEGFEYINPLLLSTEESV

HEY ovarian cancer cells [3] = experiment: HEY cell proliferation, Trypan blue exclusion assay; type: cell-based, human
Procedure: HEY human ovarian carcinoma cells were obtained from Dr. Meera Nanjundan's laboratory at the University of South Florida. The cells were grown as a monolayer in a T25 tissue culture flask with 5 mL of growth medium and maintained in a 37° C. incubator with 5% CO2. The RPMI1640 growth medium was obtained from and American Type Culture Collection (ATCC) and Life Technologies (Carlsbad, Calif.). The medium was supplemented with 10% fetal bovine serum (FBS) and a mix of the antibiotics Penicillin (10,000 IU) and Streptomycin (10,000 μg/ml) in a 100× concentration which was purchased from Corning.
HEY cells were cultured in a T25 cell culture flask. 13,000 cells were seeded into each well in a 6-well culture plate. ACPD was weighed and dissolved in water to create a 100 mM stock solution. From this solution, serial dilutions were done to create a 1 mM stock solution which was then used for treatment. In order to assess the effect of ACPD on cell viability, three wells were treated with 2 μM ACPD while the other three wells were left untreated as controls. The treatment period was 72 hours with the growth medium being changed every 24 hours. The cells were also washed with DPBS every time the growth medium was changed. Cell viability was determined at 24, 48 and 72 hours using a Trypan blue exclusion assay where 30 μL of the cell suspension was added to 30 μL of Trypan blue. The number of unstained cells was counted using a hematocytometer. The same procedures were used for ICA-1.
The experiments were performed as per the protocol described by Patel et al. (2008), herein incorporated by reference. Briefly, cells were cultured in T75 flasks in monolayers. For treatment, 40,000 cells were seeded into T75 flasks and treated for 72 hours with ICA-1 and ACPD. The proliferation was measured each day by a Trypan Blue exclusion assay which involved staining the cells with Trypan Blue and counting them under a microscope using a hemocytometer.

PKC-ι [4] = target: T2, PKC-ι; conditions: cited from earlier work; remark: listed apart in the source

Chain of PKC-δ (Q05655 whole entry): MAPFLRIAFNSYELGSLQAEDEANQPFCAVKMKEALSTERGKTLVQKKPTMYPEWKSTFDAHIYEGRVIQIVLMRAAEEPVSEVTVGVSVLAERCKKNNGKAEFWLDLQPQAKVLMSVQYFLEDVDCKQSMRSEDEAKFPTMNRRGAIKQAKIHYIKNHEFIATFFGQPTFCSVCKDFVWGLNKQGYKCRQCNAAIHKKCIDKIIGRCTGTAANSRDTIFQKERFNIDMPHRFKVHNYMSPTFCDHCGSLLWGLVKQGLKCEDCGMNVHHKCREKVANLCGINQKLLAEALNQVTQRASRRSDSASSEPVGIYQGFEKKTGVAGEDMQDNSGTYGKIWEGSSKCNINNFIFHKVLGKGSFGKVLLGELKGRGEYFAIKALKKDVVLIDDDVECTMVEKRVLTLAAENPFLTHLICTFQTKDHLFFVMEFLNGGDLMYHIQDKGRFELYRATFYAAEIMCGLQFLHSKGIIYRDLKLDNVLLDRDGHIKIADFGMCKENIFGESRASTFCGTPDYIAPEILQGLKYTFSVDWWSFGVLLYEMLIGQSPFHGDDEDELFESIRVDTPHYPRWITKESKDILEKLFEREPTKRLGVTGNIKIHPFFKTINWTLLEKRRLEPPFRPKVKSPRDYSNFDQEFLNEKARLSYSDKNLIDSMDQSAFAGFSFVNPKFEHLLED
Chain of PKC-β (P05771 whole entry, species assumed): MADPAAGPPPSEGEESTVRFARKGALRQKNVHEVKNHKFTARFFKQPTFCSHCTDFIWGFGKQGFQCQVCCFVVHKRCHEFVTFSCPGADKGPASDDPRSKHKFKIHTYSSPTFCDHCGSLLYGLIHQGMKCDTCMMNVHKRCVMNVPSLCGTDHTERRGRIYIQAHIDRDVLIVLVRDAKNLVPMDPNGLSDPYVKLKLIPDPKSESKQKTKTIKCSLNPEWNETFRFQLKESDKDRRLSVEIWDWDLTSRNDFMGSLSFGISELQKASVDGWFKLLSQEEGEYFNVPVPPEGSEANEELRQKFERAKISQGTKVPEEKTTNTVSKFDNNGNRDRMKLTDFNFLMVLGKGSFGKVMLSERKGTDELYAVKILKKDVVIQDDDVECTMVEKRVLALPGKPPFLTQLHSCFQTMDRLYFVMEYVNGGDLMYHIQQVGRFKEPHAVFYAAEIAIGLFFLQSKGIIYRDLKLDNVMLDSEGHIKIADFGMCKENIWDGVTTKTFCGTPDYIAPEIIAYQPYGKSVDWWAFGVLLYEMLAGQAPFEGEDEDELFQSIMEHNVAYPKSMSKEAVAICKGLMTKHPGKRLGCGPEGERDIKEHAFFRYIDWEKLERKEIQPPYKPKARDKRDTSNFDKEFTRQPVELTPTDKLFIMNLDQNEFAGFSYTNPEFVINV

SMILES	inhibition of PKC-δ (PKC-δ)	inhibition of PKC-ε (PKC-ε)	reduction of total RNA concentration (HEY ovarian cancer cells [1]; 1.8 μM, 72 hour treatment)	reduction of total RNA (HEY ovarian cancer cells [1]; 24 hours)	reduction of total RNA (HEY ovarian cancer cells [1]; 48 hours)	reduction of total RNA (HEY ovarian cancer cells [1]; 72 hours)	inhibition of PKC-ι (PKC-ι [2])	inhibition of PKC-α (PKC-α)	inhibition of PKC-β (PKC-β)	inhibition of PKC-ζ (PKC-ζ)	reduction of cell proliferation (HEY ovarian cancer cells [3]; 800 nM, 72 hour treatment)	reduction of cell proliferation (HEY ovarian cancer cells [3]; 1.8 μM, 72 hour treatment)	reduction of cell proliferation (HEY ovarian cancer cells [3]; 2 μM, 24 hours, compared to controls)	reduction of cell proliferation (HEY ovarian cancer cells [3]; 2 μM, 48 hours)	effectiveness in inhibiting cell proliferation relative to ICA-1 (HEY ovarian cancer cells [3]; HEY ovarian cancer cells)	binding to PKC-ι (PKC-ι [4])
CC(=O)C1=C(O)CCC1=O [ACPD, 2-acetyl-1,3-cyclopentanedione]	not PKC-α, PKC-β, PKC-δ, or PKC-ε	not PKC-α, PKC-β, PKC-δ, or PKC-ε	38%	97% and 97.4%	52.4% and 52%	34.3% and 34%	inhibits both PKC-ζ and PKC-ι	not PKC-α, PKC-β, PKC-δ, or PKC-ε	not PKC-α, PKC-β, PKC-δ, or PKC-ε	inhibits both PKC-ζ and PKC-ι	16%	28%	82% and 81.75%	60.5% and 60%	over five times more effective than ICA-1	
O=C([O-])CC([S][Au])C(=O)[O-] (centres unmarked) [Sodium aurothiomalate]																low micromolar range
OC[C@H]1O[C@H]([S][Au])[C@H](O)[C@@H](O)[C@@H]1O [aurothioglucose]																low micromolar range
